Data reported in the NIST ThermoML archive (doi:10.1021/je900598y).
± gives the expanded uncertainty stated by the source.

Assay: excess molar enthalpy (molar enthalpy of mixing); xn = mol fraction of the nth substance listed
Conditions: 298.15 K, Liquid, Calvet calorimetry

CCCCCC(=O)OC(=O)CCCCC [caproic anhydride] + CCCCCCCCCCCCCCCC
Conditions | excess molar enthalpy [kcal/mol]
x1 = 0.0307 | 0.0555 ± 0.000789
x1 = 0.0596 | 0.0993 ± 0.00131
x1 = 0.0868 | 0.135 ± 0.00174
x1 = 0.1125 | 0.163 ± 0.0021
x1 = 0.1368 | 0.189 ± 0.00239
x1 = 0.1597 | 0.209 ± 0.00263
x1 = 0.1815 | 0.227 ± 0.00287
x1 = 0.2022 | 0.242 ± 0.00311
x1 = 0.2219 | 0.255 ± 0.00311
x1 = 0.2406 | 0.266 ± 0.00335
x1 = 0.2627 | 0.278 ± 0.00359
x1 = 0.282 | 0.289 ± 0.00359
x1 = 0.2889 | 0.293 ± 0.00359
x1 = 0.2962 | 0.296 ± 0.00382
x1 = 0.3038 | 0.3 ± 0.00382
x1 = 0.3118 | 0.303 ± 0.00382
x1 = 0.3202 | 0.307 ± 0.00382
x1 = 0.3291 | 0.31 ± 0.00382
x1 = 0.3373 | 0.313 ± 0.00406
x1 = 0.346 | 0.316 ± 0.00406
x1 = 0.355 | 0.318 ± 0.00406
x1 = 0.3646 | 0.321 ± 0.00406
x1 = 0.3747 | 0.324 ± 0.00406
x1 = 0.3853 | 0.326 ± 0.00406
x1 = 0.3954 | 0.329 ± 0.00406
x1 = 0.4059 | 0.331 ± 0.00406
x1 = 0.417 | 0.333 ± 0.0043
x1 = 0.4262 | 0.333 ± 0.0043
x1 = 0.4357 | 0.334 ± 0.0043
x1 = 0.4457 | 0.335 ± 0.0043
x1 = 0.4562 | 0.336 ± 0.0043
x1 = 0.4671 | 0.336 ± 0.0043
x1 = 0.4787 | 0.336 ± 0.0043
x1 = 0.4907 | 0.336 ± 0.0043
x1 = 0.5034 | 0.335 ± 0.0043
x1 = 0.5144 | 0.334 ± 0.0043
x1 = 0.5258 | 0.333 ± 0.0043
x1 = 0.5377 | 0.331 ± 0.00406
x1 = 0.5502 | 0.33 ± 0.00406
x1 = 0.5633 | 0.328 ± 0.00406
x1 = 0.5771 | 0.325 ± 0.00406
x1 = 0.5893 | 0.322 ± 0.00406
x1 = 0.602 | 0.318 ± 0.00406
x1 = 0.6153 | 0.314 ± 0.00406
x1 = 0.6292 | 0.31 ± 0.00382
x1 = 0.6437 | 0.304 ± 0.00382
x1 = 0.6589 | 0.299 ± 0.00382
x1 = 0.6721 | 0.293 ± 0.00359
x1 = 0.6857 | 0.286 ± 0.00359
x1 = 0.6999 | 0.279 ± 0.00359
x1 = 0.7147 | 0.271 ± 0.00335
x1 = 0.7287 | 0.262 ± 0.00335
x1 = 0.7433 | 0.254 ± 0.00311
x1 = 0.7584 | 0.244 ± 0.00311
x1 = 0.7742 | 0.233 ± 0.00287
x1 = 0.7907 | 0.221 ± 0.00287
x1 = 0.8078 | 0.208 ± 0.00263
x1 = 0.8233 | 0.196 ± 0.00239
x1 = 0.8393 | 0.181 ± 0.00232
x1 = 0.856 | 0.166 ± 0.00213
x1 = 0.8733 | 0.15 ± 0.00194
x1 = 0.8914 | 0.132 ± 0.00172
x1 = 0.9102 | 0.112 ± 0.00148
x1 = 0.9269 | 0.0931 ± 0.00124
x1 = 0.9411 | 0.0725 ± 0.001
x1 = 0.962 | 0.0493 ± 0.000717
x1 = 0.9807 | 0.0265 ± 0.000454
